Results reported in ChEMBL document CHEMBL4364250, “Improvement of Asparagine Ethylenediamines as Anti-malarial Plasmodium-Selective Proteasome Inhibitors” (J Med Chem, 2019).

Tests used:
HepG2 = experiment: Cytotoxicity against human HepG2 cells; assay type: cell-based
[1] = target: T1, Proteasome Macropain subunit MB1 (Homo sapiens, UniProt P28074); experiment: Inhibition of human beta5 20S constitutive proteasome using suc-LLVY-AMC as substrate
T1 sequence (P28074 whole entry): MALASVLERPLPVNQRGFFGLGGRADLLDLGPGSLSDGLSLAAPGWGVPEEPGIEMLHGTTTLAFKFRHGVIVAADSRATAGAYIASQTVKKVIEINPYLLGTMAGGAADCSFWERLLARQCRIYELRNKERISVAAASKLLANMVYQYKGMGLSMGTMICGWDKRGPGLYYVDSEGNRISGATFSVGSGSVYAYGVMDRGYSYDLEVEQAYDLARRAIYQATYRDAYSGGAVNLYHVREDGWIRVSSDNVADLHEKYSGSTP

[2] = target: T2, Proteasome subunit beta type-8 (Homo sapiens, UniProt P28062); experiment: Inhibition of human beta5 20S immunoproteasome using Ac-ANW-AMC as substrate
T2 sequence (P28062 whole entry): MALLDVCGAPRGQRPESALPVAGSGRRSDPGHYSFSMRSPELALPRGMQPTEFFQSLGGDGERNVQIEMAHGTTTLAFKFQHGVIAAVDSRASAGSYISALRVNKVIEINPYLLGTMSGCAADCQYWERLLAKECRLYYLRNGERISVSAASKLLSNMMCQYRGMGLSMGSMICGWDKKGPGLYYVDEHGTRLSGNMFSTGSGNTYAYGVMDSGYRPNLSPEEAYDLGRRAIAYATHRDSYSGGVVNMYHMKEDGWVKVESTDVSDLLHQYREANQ

[3] = test system: beta5 subunit of human 20S constitutive proteasome; experiment: Selectivity ratio of IC50 for human beta5 20S constitutive proteasome to IC50 for Plasmodium falciparum 20S proteasome beta5 subunit; assay type: toxicity; conditions: read-out: Ratio IC50
[4] = Inhibition of Plasmodium falciparum 20S proteasome beta5 subunit using suc-LLVY-AMC as substrate in presence of beta2 inhibitor WLW-VS
[5] = test system: beta5 subunit of human 20S immunoproteasome; experiment: Selectivity ratio of IC50 for human beta5 20S immunoproteasome to IC50 for Plasmodium falciparum 20S proteasome beta5 subunit; assay type: toxicity; conditions: read-out: Ratio IC50
Karpas-1106P = experiment: Cytotoxicity against human KARPAS1106P cells; assay type: cell-based
Plasmodium falciparum [6] = experiment: Antimalarial activity against erythrocytic stage of Plasmodium falciparum 3D7 measured after 72 hrs by SYBR green dye based fluorescence assay; assay type: functional, organism-based; conditions: 3D7, 72 h
Plasmodium falciparum [7] = experiment: Antimalarial activity against erythrocytic stage of Plasmodium falciparum Dd2 measured after 72 hrs by SYBR green dye based fluorescence assay; assay type: functional, organism-based; conditions: Dd2, 72 h
Plasmodium falciparum [8] = experiment: Antimalarial activity against erythrocytic stage of Plasmodium falciparum Dd2 harboring 20S beta2 proteasome A117D mutant measured after 72 hrs by SYBR green dye based fluorescence assay; assay type: functional, organism-based; conditions: Dd2, 72 h
Plasmodium falciparum [9] = experiment: Antimalarial activity against erythrocytic stage of Plasmodium falciparum Dd2 harboring 20S beta5 proteasome A49S mutant measured after 72 hrs by SYBR green dye based fluorescence assay; assay type: functional, organism-based; conditions: Dd2, 72 h
Plasmodium falciparum [10] = experiment: Resistance index, ratio of EC50 for erythrocytic stage of Plasmodium falciparum Dd2 harboring 20S beta5 proteasome A49S mutant to EC50 erythrocytic stage of Plasmodium falciparum Dd2; assay type: functional
Plasmodium falciparum [11] = experiment: Resistance index, ratio of EC50 for erythrocytic stage of Plasmodium falciparum Dd2 harboring 20S beta6 proteasome A117D mutant to EC50 erythrocytic stage of Plasmodium falciparum Dd2

SMILES | EC50 (HepG2) | IC50 [1] | IC50 [2] | selectivity ratio [3] | IC50 [4] | selectivity ratio [5] | EC50 (Karpas-1106P) | EC50 (Plasmodium falciparum [6]) | EC50 (Plasmodium falciparum [7]) | EC50 (Plasmodium falciparum [8]) | EC50 (Plasmodium falciparum [9]) | Ratio EC50 (Plasmodium falciparum [10]) | Ratio EC50 (Plasmodium falciparum [11])
Cc1ccc(S(=O)(=O)N[C@@H](CC(=O)NC(C)(C)C)C(=O)NCCNC(=O)c2ccc(F)c(F)c2)cc1 | > 11 µM | 6.04 µM | 0.195 µM | 48 | 0.126 µM | 1.5 | > 11.1 µM | 0.0688 µM |  |  |  |  | 
Cc1ccc(S(=O)(=O)N[C@@H](CC(=O)NC(C)(C)C)C(=O)NCCNC(=O)c2cc(Cl)ccn2)cc1 | > 11 µM | > 100 µM | 3.56 µM | > 110 | 0.911 µM | 3.9 | > 11.1 µM | 0.283 µM |  |  |  |  | 
COc1cc(OC)cc(C(=O)NCCNC(=O)[C@H](CC(=O)NC(C)(C)C)NS(=O)(=O)c2ccc(C)cc2)c1 | > 11 µM | > 100 µM | 9.97 µM | > 24.7 | 4.06 µM | 2.5 | > 11.1 µM | > 2.77 µM |  |  |  |  | 
Cc1ccc(S(=O)(=O)N[C@@H](CC(=O)NC(C)(C)C)C(=O)NCCNC(=O)c2cccc(C(F)(F)F)c2)cc1 | > 11 µM | 37.1 µM | 0.763 µM | 148 | 0.25 µM | 3.1 | > 11.1 µM | 0.167 µM |  |  |  |  | 
Cc1ccc(S(=O)(=O)N[C@@H](CC(=O)NC(C)(C)C)C(=O)NCCNC(=O)c2cccc(O)c2)cc1 | > 11 µM | 4.38 µM | 0.475 µM | 195 | 0.0224 µM | 21 | > 11.1 µM | 0.0154 µM |  |  |  |  | 
Cc1ccc(S(=O)(=O)N[C@@H](CC(=O)NC(C)(C)C)C(=O)NCCNC(=O)c2c(O)cccc2F)cc1 | > 11 µM | 0.54 µM | 0.0727 µM | 13 | 0.0405 µM | 1.8 | > 11.1 µM | 0.0837 µM |  |  |  |  | 
Cc1ccc(S(=O)(=O)N[C@@H](CC(=O)NC(C)(C)C)C(=O)NCCNC(=O)c2ccc(Cl)cc2)cc1 | > 11 µM | 5 µM | 0.038 µM | 44 | 0.113 µM | 0.3 | > 11.1 µM | 0.13 µM |  |  |  |  | 
Cc1ccc(S(=O)(=O)N[C@@H](CC(=O)NC(C)(C)C)C(=O)NCCNS(=O)(=O)c2ccccc2)cc1 | > 11 µM | > 100 µM | 2.89 µM | > 6.6 | 15.1 µM | 0.2 | > 11.1 µM | > 2.77 µM |  |  |  |  | 
Cc1ccc(S(=O)(=O)N[C@@H](CC(=O)NC(C)(C)C)C(=O)NCCNC(=O)c2cc(C)ccn2)cc1 | > 11 µM | > 100 µM | 3.11 µM | > 156 | 0.639 µM | 4.9 | > 11.1 µM | 0.227 µM |  |  |  |  | 
Cc1ccc(S(=O)(=O)N[C@@H](CC(=O)NC(C)(C)C)C(=O)NCCNC(=O)NCc2ccccc2)cc1 | > 11 µM | 46.6 µM | 2.35 µM | 16.8 | 2.77 µM | 0.85 | > 11.1 µM | 2.14 µM |  |  |  |  | 
Cc1ccc(S(=O)(=O)N[C@@H](CC(=O)NC(C)(C)C)C(=O)NCCNC(=O)c2cccc(F)c2)cc1 | > 11 µM | 2.2 µM | 0.128 µM | 74 | 0.0296 µM | 4.3 | > 11.1 µM | 0.0117 µM |  |  |  |  | 
Cc1ccc(S(=O)(=O)N[C@@H](CC(=O)NC(C)(C)C)C(=O)NCCNC(=O)c2ccccn2)cc1 | > 11 µM | 29.4 µM | 2.09 µM | 27 | 1.09 µM | 1.9 | > 11.1 µM | > 2.77 µM |  |  |  |  | 
Cc1ccc(S(=O)(=O)N[C@@H](CC(=O)NC(C)(C)C)C(=O)NCCNC(=O)c2cccc(C#N)c2)cc1 | > 11 µM | 40.2 µM | 4.69 µM | 103 | 0.39 µM | 12 | > 11.1 µM | 0.132 µM |  |  |  |  | 
CC(C)C[C@@H](/C=C/S(C)(=O)=O)NC(=O)[C@H](CC(C)C)NC(=O)[C@H](Cc1c[nH]c2ccccc12)NC(=O)CN1CCOCC1 |  |  |  |  |  |  |  |  | 0.0916 µM | 0.0073 µM | 0.026 µM | 0.28 | 0.08
Cc1ccc(S(=O)(=O)N[C@@H](CC(=O)NC(C)(C)C)C(=O)NCCNC(=O)c2ccccc2Cl)cc1 | > 11 µM | 26 µM | 1.4 µM | 123 | 0.211 µM | 6.6 | > 11.1 µM | 0.098 µM |  |  |  |  | 
Cc1cc(C(=O)N[C@@H](CC(=O)NC(C)(C)C)C(=O)NCCNC(=O)c2cccc(-n3cccn3)c2)no1 |  |  |  |  |  |  |  |  | 0.0276 µM | 0.279 µM | > 2.77 µM | >100 | 10
Cc1ccc(S(=O)(=O)N[C@@H](CC(=O)NC(C)(C)C)C(=O)NCCNC(=O)Nc2ccccc2)cc1 | > 11 µM | > 100 µM | 2.09 µM | > 3.9 | 2.58 µM | 0.8 | > 11.1 µM | > 2.77 µM |  |  |  |  | 
Cc1ccc(S(=O)(=O)N[C@@H](CC(=O)NC(C)(C)C)C(=O)NCCNC(=O)c2cc(Cl)ccc2Cl)cc1 | > 11 µM | > 100 µM | 5.65 µM | > 507 | 0.197 µM | 28.7 | > 11.1 µM | 0.118 µM |  |  |  |  | 
Cc1ccc(S(=O)(=O)N[C@@H](CC(=O)NC(C)(C)C)C(=O)NCCNC(=O)c2cccc(C(C)C)c2)cc1 | > 11 µM | 9.12 µM | 0.2 µM | 225 | 0.0404 µM | 5 | > 11.1 µM | 0.0985 µM |  |  |  |  | 
Cc1ccc(S(=O)(=O)N[C@@H](CC(=O)NC(C)(C)C)C(=O)NCCNC(=O)c2ccccc2O)cc1 | > 11 µM | 0.409 µM | 0.024 µM | 67 | 0.0061 µM | 4 | > 11.1 µM | 0.0096 µM |  |  |  |  | 
